Values after ≈ are worked out from the molar mass of the structure shown. Read-outs that look alike come from different tables or passages of the source. Marks after values point to notes of the source that are not given here.
Experiments:
[1] = test system: Staphylococcus aureus ATCC25923; test: MIC by broth dilution, S. aureus ATCC25923; format: cell-based; conditions: Staphylococcus aureus ATCC25923; mean (n = 3)
Method: The susceptibility of S. aureus (ATCC25923) to antibiotics and compounds was determined in microplates using the standard broth dilution method in accordance with the recommendations of the Comité de l’AntibioGramme de la Société Française de Microbiologie (CA-SFM) as previously described. Briefly, the minimal inhibitory concentrations (MICs) were determined with an inoculum of 10^5 CFU in 200 µL of Mueller-Hinton broth (MHB) containing two-fold serial dilutions of each drug. […] To determine all MICs, the measurements were independently repeated in triplicate.

[2] = test system: Staphylococcus aureus ATCC43300 (MRSA); test: MIC, MRSA ATCC43300 (CO-ADD protocol); format: cell-based; conditions: for MIC: Staphylococcus aureus, read-out: MIC (µg/mL) MRSA
Source text: Additional antimicrobial evaluation against Staphylococcus aureus MRSA (ATCC43300), Pseudomonas aeruginosa (ATCC27853), Escherichia coli (ATCC25922), Klebsiella pneumoniae (ATCC700603), Acinetobacter baumannii (ATCC19606), Candida albicans (ATCC90028), and Cryptococcus neoformans (ATCC208821) was undertaken at the Community for Open Antimicrobial Drug Discovery at The University of Queensland (Australia) according to their standard protocols. For antimicrobial assays, the tested strains were cultured in either Luria broth (LB) (In Vitro Technologies, USB75852, Noble Park North, Australia), nutrient broth (NB) (Becton Dickson, 234000, Macquarie Park, Australia), or cation-adjusted MHB at 37 °C overnight. A sample of culture was then diluted 40-fold in fresh MHB and incubated at 37 °C for 1.5−2 h. The compounds were serially diluted 2-fold across the wells of 96-well plates (Corning 3641, Tewksbury, MA, USA, nonbinding surface), with compound concentrations ranging from 0.015 to 64 μg/mL, plated in duplicate. The resultant mid log phase cultures were diluted to the final concentration of 1 × 10^6 CFU/mL; then, 50 μL was added to each well of the compound containing plates giving a final compound concentration range of 0.008 to 32 μg/mL and a cell density of 5 × 10^5 CFU/mL. All plates were then covered and incubated at 37 °C for 18 h. Resazurin was added at 0.001% final concentration to each well and incubated for 2 h before MICs were read by eye.
(§1) Colistin and vancomycin were used as positive bacterial inhibitor standards for Gram-negative and Gram-positive bacteria, respectively. Fluconazole was used as a positive fungal inhibitor standard for C. albicans and C. neoformans. The antibiotics were provided in 4 concentrations, with 2 above and 2 below its MIC value, and plated into the first 8 wells of column 23 of the 384-well NBS plates. The quality control (QC) of the assays was determined by the antimicrobial controls and the Z′-factor (using positive and negative controls).

[3] = test system: Cryptococcus neoformans ATCC208821; test: Antifungal MIC, C. neoformans; format: cell-based; conditions: Cryptococcus neoformans ATCC208821; mean (n = 2)
Method: For the antifungal assay, fungi strains were cultured for 3 days on yeast extract-peptone dextrose (YPD) agar at 30 °C. A yeast suspension of 1 × 10^6 to 5 × 10^6 CFU/mL was prepared from five colonies. These stock suspensions were diluted with yeast nitrogen base (YNB) (Becton Dickinson, 233520) broth to a final concentration of 2.5 × 10^3 CFU/mL. The compounds were serially diluted 2-fold across the wells of 96-well plates (Corning 3641, nonbinding surface), with compound concentrations ranging from 0.015 to 64 μg/mL and final volumes of 50 μL, plated in duplicate. Then, 50 μL of the fungi suspension that was previously prepared in YNB broth to the final concentration of 2.5 × 10^3 CFU/mL was added to each well of the compound-containing plates, giving a final compound concentration range of 0.008 to 32 μg/mL. Plates were covered and incubated at 35 °C for 36 h without shaking. C. albicans MICs were determined by measuring the absorbance at OD530. For C. neoformans, resazurin was added at 0.006% final concentration to each well and incubated for a further 3 h before MICs were determined by measuring the absorbance at OD570–600.
as §1

[4] = HEK293 cytotoxicity assay (resazurin); format: cell-based, human; conditions: human; for CC50 at 20 h: concentration at 50% cytotoxicity on HEK293 cells, mean (n = 2)
Method: For the HEK293 cytotoxicity assay, cells were counted manually in a Neubauer hemocytometer and plated at a density of 5000 cells/well into each well of the 384-well plates containing the 25× (2 μL) concentrated compounds. The medium used was Dulbecco’s modified eagle medium (DMEM) supplemented with 10% fetal bovine serum (FBS). Cells were incubated together with the compounds for 20 h at 37 °C, 5% CO2. To measure cytotoxicity, 5 μL (equals 100 μM final) of resazurin was added to each well after incubation, and incubated for further 3 h at 37 °C with 5% CO2. After final incubation fluorescence intensity was measured as Fex 560/10 nm, em 590/10 nm (F560/590) using a Tecan M1000 Pro monochromator plate reader. CC50 values (concentration at 50% cytotoxicity) were calculated by normalizing the fluorescence readout, with 74 μg/mL tamoxifen as negative control (0%) and normal cell growth as positive control (100%). The concentration-dependent percentage cytotoxicity was fitted to a dose response function (using Pipeline Pilot) and CC50 values determined.

human red blood cells = test: Hemolytic assay; format: cell-based; conditions: concentration at 10% hemolytic activity on human red blood cells; mean (n = 2)
Method: Human whole blood was washed three times with 3 volumes of 0.9% NaCl and then resuspended in same to a concentration of 0.5 × 10^8 cells/mL, as determined by manual cell count in a Neubauer hemocytometer. The washed cells were then added to the 384-well compound-containing plates for a final volume of 50 μL. After a 10 min shake on a plate shaker the plates were then incubated for 1 h at 37 °C. After incubation, the plates were centrifuged at 1000 g for 10 min to pellet cells and debris, 25 μL of the supernatant was then transferred to a polystyrene 384-well assay plate. Hemolysis was determined by measuring the supernatant absorbance at […] (OD405). The absorbance was measured using a Tecan M1000 Pro monochromator plate reader. HC10 and HC50 (concentration at 10% and 50% hemolysis, respectively) were calculated by curve fitting the inhibition values vs. log(concentration) using a sigmoidal dose–response function with variable fitting values for top, bottom and slope.

[5] = Staphylococcus aureus ATCC43300 (MRSA), mean (n = 2)

Row | Structure (SMILES) | MIC [1] [µg/mL] | MIC [2, 5] [µg/mL] | MIC [3] [µg/mL] | CC50 at 20 h [4] [µg/mL] | HC10 (human red blood cells) [µg/mL] | melting point [°C] | anti-MRSA activity (in words) ([2]; result in words) | IC50 at 20 h ([4]; HEK293 cells, positive control) [µg/mL] | HC10 (µg/mL) (human red blood cells) | MIC [2] [µg/mL]
1 | COc1ccc(CCn2cncc2-c2c[nH]c3cc(Br)ccc23)cc1 [Compound 28, 6-Bromo-3-(1-(4-methoxyphenethyl)-1H-imidazol-5-yl)-1H-indole] | 12.5 (≈ 31.5 µM) | 32 (≈ 80.7 µM) | 32 (≈ 80.7 µM) | 15.6 (≈ 39.4 µM) | >32 | 184 to 185 | – | – | – | –
2 | Fc1ccc2[nH]cc(-c3cncn3CCc3ccccc3)c2c1 [Compound 3, 5-Fluoro-3-(1-phenethyl-1H-imidazol-5-yl)-1H-indole] | – | – | – | – | – | 127 to 130 | devoid of activity | – | – | –
3 | Brc1ccc2c(-c3cncn3CCc3ccccc3)c[nH]c2c1 [Compound 22, 6-Bromo-3-(1-phenethyl-1H-imidazol-5-yl)-1H-indole] | 12.5 (≈ 34.1 µM) | 16 (≈ 43.7 µM) | 32 (≈ 87.4 µM) | 12.7 (≈ 34.7 µM) | >32 | – | – | – | – | –
4 | COc1ccc(Cn2cncc2-c2c[nH]c3ccccc23)cc1 [Compound 11, 3-(1-(4-Methoxybenzyl)-1H-imidazol-5-yl)-1H-indole] | > 200 | 32 (≈ 105 µM) | > 32 | 25.6 (≈ 84.4 µM) | >32 | 159 to 160 | – | – | – | –
5 | [H]/N=C(/N)N[C@H]1[C@H](O)[C@@H](O)[C@H](O[C@@H]2O[C@@H](C)[C@](O)(C=O)[C@H]2O[C@@H]2O[C@@H](CO)[C@H](O)[C@@H](O)[C@@H]2NC)[C@@H](N/C(N)=N\[H])[C@@H]1O [streptomycin, reference compound] | 12.5 (≈ 21.5 µM) | – | – | – | – | – | – | – | – | –
6 | COc1ccc(OC)c(CCn2cncc2-c2c[nH]c3ccc(Br)cc23)c1 [Compound 34, 5-Bromo-3(1-(2,5-dimethoxyphenethyl)-1H-imidazol-5-yl)-1H-indole] | 25 (≈ 58.6 µM) | 16 (≈ 37.5 µM) | > 32 | 6.2 (≈ 14.5 µM) | >32 | 141 to 142 | – | – | – | –
7 | COc1ccc(OC)c(CCn2cncc2-c2c[nH]c3ccccc23)c1 [Compound 29, 3-(1-(2,5-Dimethoxyphenethyl)-1H-imidazol-5-yl)-1H-indole] | > 200 | 32 (≈ 92.1 µM) | > 32 | 11.5 (≈ 33.1 µM) | >32 | – | – | – | – | –
8 | Clc1ccc2[nH]cc(-c3cncn3CCc3ccccc3)c2c1 [Compound 19, 5-Chloro-3-(1-phenethyl-1H-imidazol-5-yl)-1H-indole] | 12.5 (≈ 38.8 µM) | 16 (≈ 49.7 µM) | > 32 | 17.3 (≈ 53.8 µM) | >32 | > 200 | – | – | – | –
9 | Brc1ccc2[nH]cc(-c3cncn3CCc3ccccc3)c2c1 [Compound 21, 5-Bromo-3-(1-phenethyl-1H-imidazol-5-yl)-1H-indole] | 6.25 (≈ 17.1 µM) | 16 (≈ 43.7 µM) | 32 (≈ 87.4 µM) | 10.6 (≈ 28.9 µM) | >32 | 110 to 111 | – | – | – | –
10 | OC(Cn1cncn1)(Cn1cncn1)c1ccc(F)cc1F [fluconazole, reference compound] | – | – | 8 (≈ 26.1 µM) | – | – | – | – | – | – | –
11 | Brc1ccc2c(-c3cncn3CCc3ccc4c(c3)OCO4)c[nH]c2c1 [Compound 42, 3-(1-(2-(Benzo[d][1,3]dioxol-5-yl)ethyl)-1H-imidazol-5-yl)-6-bromo-1H-indole] | 12.5 (≈ 30.5 µM) | 16 (≈ 39 µM) | 32 (≈ 78 µM) | 16.1 (≈ 39.2 µM) | >32 | 194 to 195 | – | – | – | –
12 | CC/C(=C(\c1ccccc1)c1ccc(OCCN(C)C)cc1)c1ccccc1 [Tamoxifen, reference compound] | – | – | – | – | – | – | – | 9 (≈ 24.2 µM) | – | –
13 | Fc1ccc2c(-c3cncn3CCc3ccccc3)c[nH]c2c1 [Compound 18, 6-Fluoro-3-(1-phenethyl-1H-imidazol-5-yl)-1H-indole] | 25 (≈ 81.9 µM) | 32 (≈ 105 µM) | > 32 | 16.3 (≈ 53.4 µM) | – | – | – | – | >32^c µg/mL | –
14 | O=C(N[C@H](CO)[C@H](O)c1ccc([N+](=O)[O-])cc1)C(Cl)Cl [chloramphenicol, reference compound] | 0.5 to 1 (≈ 1.55 to 3.09 µM) | – | – | – | – | – | – | – | – | –
15 | COc1ccc(CCn2cncc2-c2c[nH]c3cc(F)ccc23)cc1 [Compound 25, 6-Fluoro-3-(1-(4-methoxyphenethyl)-1H-imidazol-5-yl)-1H-indole] | 100 (≈ 298 µM) | 16 (≈ 47.7 µM) | > 32 | 27 (≈ 80.5 µM) | >32 | – | – | – | – | –
16 | CN[C@H](CC(C)C)C(=O)N[C@H]1C(=O)N[C@@H](CC(N)=O)C(=O)N[C@H]2C(=O)N[C@H]3C(=O)N[C@H](C(=O)N[C@H](C(=O)O)c4cc(O)cc(O)c4-c4cc3ccc4O)[C@H](O)c3ccc(c(Cl)c3)Oc3cc2cc(c3O[C@@H]2O[C@H](CO)[C@@H](O)[C@H](O)[C@H]2O[C@H]2C[C@](C)(N)[C@H](O)[C@H](C)O2)Oc2ccc(cc2Cl)[C@H]1O [vancomycin, reference compound] | – | – | – | – | – | – | – | – | – | 1 (≈ 0.69 µM)
